# Source: ChEMBL document CHEMBL4390686, “Design, Synthesis, and Pharmacokinetic Evaluation of Phosphate and Amino Acid Ester Prodrugs for Improving the Oral Bioavailability of the HIV-1 Protease Inhibitor Atazanavir” (J Med Chem, 2019)
# Experiments:
# [1] = Stability in pH 6.5 30%CH3CN/phosphate buffer assessed as parent compound remaining at 50 mM measured after 30 mins by RP-UPLC analysis; format: physicochemical; conditions: read-out: Stability
# [2] = rat, in vivo, po, 3 mg/kg
# [3] = Stability in pH 6.5 30%CH3CN/phosphate buffer assessed as parent compound remaining at 50 mM measured after 2 mins by RP-UPLC analysis; format: physicochemical; conditions: read-out: Stability
# [4] = Cmin in cannulated Sprague-Dawley rat at 30 mg/kg equiv of atazanavir administered orally measured after 24 hrs by UPLC/MS/MS analysis; format: ADME, organism-based; conditions: in vivo, po, BLD = below limit of detection
# [5] = Cmax in cannulated Sprague-Dawley rat assessed as atazanavir level at 30 mg/kg equiv of atazanavir administered orally by UPLC/MS/MS analysis; format: ADME, organism-based; design: dose 30 mg/kg, route oral; conditions: in vivo, po
# physchem [6] = conditions: 30% CH3CN/phosphate buffer, pH 6.5
# Description: Half life in pH 6.5 30%CH3CN/phosphate buffer at 50 mM by RP-UPLC analysis
# [7] = rat, in vivo, po, 3 mg/kg; remark: listed apart in the source
# physchem [8] = conditions: HCl buffer, pH 1
# Description: Aqueous solubility of the compound in pH 1 HCl buffer by RP-UPLC analysis
# physchem [9] = conditions: 30% CH3CN/acetate buffer, pH 4
# Description: Half life in pH 4 30%CH3CN/acetate buffer at 50 mM by RP-UPLC analysis
# [10] = rat, in vivo, po, 3 mg/kg; remark: listed apart in the source
# Description: AUClast in cannulated Sprague-Dawley rat assessed as atazanavir level at 3 mg/kg equiv of atazanavir administered orally by UPLC/MS/MS analysis
# [11] = Cmin in cannulated Sprague-Dawley rat assessed as atazanavir level at 3 mg/kg equiv of atazanavir administered orally measured after 24 hrs by UPLC/MS/MS analysis; format: ADME, organism-based; conditions: in vivo, po, read-out: Cmin
# [12] = Cmin in cannulated Sprague-Dawley rat at 3 mg/kg equiv of atazanavir administered orally measured after 24 hrs by UPLC/MS/MS analysis; format: ADME, organism-based; conditions: in vivo, po, BLD = below limit of detection
# [13] = AUClast in cannulated Sprague-Dawley rat assessed as atazanavir level at 30 mg/kg equiv of atazanavir administered orally by UPLC/MS/MS analysis; format: ADME, organism-based; design: dose 30 mg/kg, route oral, time 0 - last; conditions: in vivo, po
# [14] = Cmin in cannulated Sprague-Dawley rat assessed as atazanavir level at 30 mg/kg equiv of atazanavir administered orally measured after 24 hrs by UPLC/MS/MS analysis; format: ADME, organism-based; conditions: in vivo, po, read-out: Cmin
# physchem [15] = conditions: 30% CH3CN/HCl buffer, pH 1
# Description: Half life in pH 1 30%CH3CN/HCl buffer at 50 mM by RP-UPLC analysis
# [16] = Tmax in cannulated Sprague-Dawley rat assessed as atazanavir level at 30 mg/kg equiv of atazanavir administered orally by UPLC/MS/MS analysis; format: ADME, organism-based; conditions: in vivo, po
# in vitro [17] = conditions: human, Caco-2
# Description: Apparent permeability across apical to basolateral side in human Caco2 cells at 2 uM
# physchem [18] = conditions: 30% CH3CN/phosphate buffer, pH 7.4
# Description: Half life in pH 7.4 30%CH3CN/phosphate buffer at 50 mM by RP-UPLC analysis
# physchem [19] = conditions: phosphate buffer, pH 7.4
# Description: Aqueous solubility of the compound in pH 7.4 phosphate buffer by RP-UPLC analysis
# in vitro [20] = conditions: human, Caco-2; remark: listed apart in the source
# Description: Apparent permeability across basolateral to apical side in human Caco2 cells at 2 uM
# physchem [21] = conditions: acetate buffer, pH 4
# Description: Aqueous solubility of the compound in pH 4 acetate buffer by RP-UPLC analysis
# in vitro [22] = conditions: human, Caco-2; remark: listed apart in the source
# Description: Efflux ratio of apparent permeability across basolateral to apical side over apical to basolateral side in human Caco2 cells
# physchem [23] = conditions: phosphate buffer, pH 6.5
# Description: Aqueous solubility of the compound in pH 6.5 phosphate buffer by RP-UPLC analysis
# [24] = Prodrug conversion assessed as recombinant rat intestinal alkaline phosphatase-mediated compound dephosphorylation by measuring half life by UPLC-MS/MS analysis; format: ADME
# [25] = Prodrug conversion assessed as recombinant human intestinal alkaline phosphatase-mediated compound dephosphorylation by measuring half life by UPLC-MS/MS analysis; format: ADME; conditions: isolated protein
# [26] = Prodrug conversion in cannulated Sprague-Dawley rat plasma assessed as atazanavir formation at 3 mg/kg equiv of atazanavir administered orally by UPLC/MS/MS analysis; format: ADME, organism-based; conditions: in vivo, po
# [27] = Half life in pH 2 30%CH3CN solution at 50 mM by RP-UPLC analysis; format: physicochemical
# [28] = Ratio of test compound to atazanavir aqueous solubility in pH 6.5 phosphate buffer by RP-UPLC analysis; format: physicochemical
# [29] = Drug recovery in mesenteric vein plasma of closed loop rat intestinal model at 1 mg/kg administered as cassette dose by LC/MS analysis; format: ADME, organism-based; conditions: in vivo
# [30] = Drug recovery in intestinal content of closed loop rat intestinal model at 1 mg/kg administered as cassette dose by LC/MS analysis; format: ADME, organism-based; conditions: in vivo
# [31] = Drug recovery in intestinal homogenates of closed loop rat intestinal model at 1 mg/kg administered as cassette dose by LC/MS analysis; format: ADME, organism-based, Intestine; conditions: intestinal homogenate, other: closed loop intestinal model, read-out: Drug recovery
# Protease = Protease (Human immunodeficiency virus 1, UniProt Q9YQ12)
# Description: Inhibition of HIV1 protease activity
# [32] = tested on: Human immunodeficiency virus 1
# Description: Antiviral activity against HIV1 NL4-3 infected in human MT2 cells assessed as reduction in viral yield measured after 4 days by EnduRen live cell substrate based luciferase reporter gene assay
# [33] = Prodrug conversion assessed as calf intestinal alkaline phosphatase-mediated compound dephosphorylation by UPLC-MS/MS analysis; format: ADME, Bos taurus; conditions: cattle, isolated protein
# [34] = Prodrug conversion assessed as calf intestinal alkaline phosphatase-mediated compound dephosphorylation by measuring half life by UPLC-MS/MS analysis; format: ADME, Bos taurus; conditions: cattle, isolated protein
# Protease, sequence (Q9YQ12 whole entry): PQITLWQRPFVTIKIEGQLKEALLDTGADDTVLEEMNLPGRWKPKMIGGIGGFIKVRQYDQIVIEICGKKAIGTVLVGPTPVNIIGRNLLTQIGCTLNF
SMILES,Tmax [2] [h],half-life at 50000 µM (physchem [6]) [h],Cmax [7] [nM],solubility (physchem [8]) [µg/mL],half-life at 50000 µM (physchem [9]) [h],AUClast [10] [µM·h],half-life at 50000 µM (physchem [15]) [h],Papp A→B at 2 µM (in vitro [17]) [×10⁻⁶ cm/s],Papp B→A at 2 µM (in vitro [20]) [×10⁻⁶ cm/s],solubility (physchem [21]) [µg/mL],efflux ratio (in vitro [22]),solubility (physchem [23]) [µg/mL],Drug metabolism [26],further results
COC(=O)N[C@H](C(=O)N[C@@H](Cc1ccccc1)[C@H](CN(Cc1ccc(-c2ccccn2)cc1)NC(=O)[C@@H](NC(=O)OC)C(C)(C)C)OC(=O)CN(C)C(=O)[C@@H](N)Cc1ccccc1)C(C)(C)C.Cl.Cl,1,0.08,794,1170,9.03,1.533,> 500,–,–,–,–,–,–,"remaining at 0.5 h, 50000 µM [1]: 2%; remaining at 2 min, 50000 µM [3]: 86.1%; Cmin [4]: Bld; Cmax [5]: 8760 nM; concentration [11]: 1.9 nM; Cmin [12]: Bld; AUClast [13]: 16.58 µM·h; concentration [14]: 30.4 nM; Tmax [16]: 1 h"
COC(=O)N[C@H](C(=O)N[C@@H](Cc1ccccc1)[C@H](CN(Cc1ccc(-c2ccccn2)cc1)NC(=O)[C@@H](NC(=O)OC)C(C)(C)C)OC(=O)[C@@H](N)Cc1ccc(O)cc1)C(C)(C)C,0.4,–,99,> 980,376,0.103,> 500,< 1.5,7.1,> 1420,> 4.7,–,–,half-life at 50000 µM (physchem [18]): 215 h; solubility (physchem [19]): 9 µg/mL
COC(=O)N[C@H](C(=O)N[C@@H](Cc1ccccc1)[C@H](CN(Cc1ccc(-c2ccccn2)cc1)NC(=O)[C@@H](NC(=O)OC)C(C)(C)C)OCOP(=O)([O-])[O-])C(C)(C)C.[Na+].[Na+],0.25,> 500,257,–,> 500,0.277,0.2,–,–,> 930,–,> 1060,Metabolite_Detected,t1/2 [24]: > 0.167 h; t1/2 [25]: 0.35 h; half-life at 50000 µM [27]: 1.95 h
COC(=O)N[C@H](C(=O)N[C@@H](Cc1ccccc1)[C@H](CN(Cc1ccc(-c2ccccn2)cc1)NC(=O)[C@@H](NC(=O)OC)C(C)(C)C)OC(=O)CNC(=O)[C@@H](N)Cc1ccccc1)C(C)(C)C,0.4,73.4,9,> 2900,> 500,0.016,> 500,–,–,> 3500,–,> 640,–,Ratio [28]: > 200
CC(C)(C)NCC(O)COc1cccc2c1CC(O)C(O)C2 (stereo unspecified) [NADOLOL],–,–,–,–,–,–,–,–,–,–,–,–,–,Drug recovery [29]: 1.3%; Drug recovery [30]: 45%; recovery [31]: 14%
COC(=O)N[C@H](C(=O)N[C@@H](Cc1ccccc1)[C@H](CN(Cc1ccc(-c2ccccn2)cc1)NC(=O)[C@@H](NC(=O)OC)C(C)(C)C)OC(=O)CNC(=O)[C@H](N)Cc1ccccc1)C(C)(C)C,0.5,88.5,51,> 2100,> 500,0.307,> 500,–,–,> 2300,–,230,–,Ratio [28]: > 200
COC(=O)N[C@H](C(=O)N[C@@H](Cc1ccccc1)[C@H](CN(Cc1ccc(-c2ccccn2)cc1)NC(=O)[C@@H](NC(=O)OC)C(C)(C)C)OC(=O)CN(C)C)C(C)(C)C,0.3,–,66.8,> 1400,> 500,0.0457,> 500,< 1.5,13.2,> 1700,> 8.8,–,–,IC50 (Protease): 0.004 to 1.14 µM; half-life at 50000 µM (physchem [18]): 188 h; EC50 [32]: 0.0009 to 1.25 µM; solubility (physchem [19]): 360 µg/mL
Cc1cccc(C)c1OCC(=O)N[C@@H](Cc1ccccc1)[C@H](C[C@H](Cc1ccccc1)NC(=O)[C@H](C(C)C)N1CCCNC1=O)OP(=O)(O)O,–,–,–,–,–,–,–,–,–,–,–,–,Metabolite_Notdetected,Drug metabolism [33]: Metabolite_Notdetected
COC(=O)N[C@H](C(=O)N[C@@H](Cc1ccccc1)[C@H](CN(Cc1ccc(-c2ccccn2)cc1)NC(=O)[C@@H](NC(=O)OC)C(C)(C)C)OC(=O)CNCc1ccccc1)C(C)(C)C,0.6,334,55,> 990,> 500,0.1,> 500,< 1.5,9.6,> 710,> 6.4,< 1,–,–
COC(=O)N[C@H](C(=O)N[C@@H](Cc1ccccc1)[C@H](CN(Cc1ccc(-c2ccccn2)cc1)NC(=O)[C@@H](NC(=O)OC)C(C)(C)C)OC(=O)[C@@H](N)Cc1ccc(F)cc1)C(C)(C)C,0.5,–,305,> 1380,> 500,0.463,> 500,< 1.5,8.2,> 980,> 5.5,–,–,half-life at 50000 µM (physchem [18]): 334 h; solubility (physchem [19]): < 1 µg/mL
COC(=O)N[C@H](C(=O)N[C@@H](Cc1ccccc1)[C@H](CN(Cc1ccc(-c2ccccn2)cc1)NC(=O)[C@@H](NC(=O)OC)C(C)(C)C)OP(=O)(O)O)C(C)(C)C,–,250,–,> 2650,334,–,334,–,–,250,–,> 2870,Metabolite_Notdetected,t1/2 [24]: > 2 h; t1/2 [25]: > 2 h
CC(C)CN(C[C@@H](OP(=O)(O)O)[C@H](Cc1ccccc1)NC(=O)O[C@H]1CCOC1)S(=O)(=O)c1ccc(N)cc1 [FOSAMPRENAVIR],–,–,–,–,–,–,–,–,–,–,–,–,Metabolite_Notdetected,Drug metabolism [33]: Metabolite_Notdetected
Cc1cccc(C)c1OCC(=O)N[C@@H](Cc1ccccc1)[C@@H](O)C[C@H](Cc1ccccc1)NC(=O)[C@H](C(C)C)N1CCCNC1=O [LOPINAVIR],–,–,–,–,–,–,–,–,–,–,–,–,Metabolite_Detected,t1/2 [34]: 0.22 h
